Assay results: patent US20150197492A1, “NOVEL INDENO[1,2-c]QUINOLIN-11-ONE DERIVATIVES, PREPARATION METHOD AND APPLICATION THEREOF” (National Defense Medical Center, priority 2014, published 2015)

How the values were obtained:
Type in all cases: cell-based
UACC-62 = assay: cells
BT-549 = assay: cells
HT29 = assay: cells
MOLT-4 = assay: cells
MDA-MB-435 = assay: cells
PC-3 = assay: cells
SK-MEL-28 = assay: cells
NCI-H322M = assay: cells
human PC-3 cells = assay: Sulforhodamine B (SRB) assay, cytotoxicity against PC-3 cells; conditions: SRB assay, PC-3 cells
Procedure: Add 5% Fetal Bovine Serum (FBS) to 96-well plate and fix the cells with 10% TCA after 24 hours of incubation and add the compound (T0). Add DMSO and culture for another 48 hours and the cells are fixed in 0.4% (W/V), 10% TCA and SRB, and […]. Excess SRB is washed off by 1% acetic acid and cells stained with SRB are dissolved in 10 mmol/L Trizma base. The absorbance is measured at 515 nm. The treatment time is 0 (T0), control growth (C) and the increase of the compound (Tx) in the cells are shown below and are used to calculate the increase of the concentration of the compound in percentage. Growth inhibition (GI %) is calculated using the following formula 100−[(TX−T0)/(C−T0)]×100. The 50% growth inhibition concentration (IC50) is used to confirm the concentration of compound and thus results in 50% reduction of the treated cells which control the amount of total protein.
This part of experimental results are SRB assays measuring cytotoxicity of the 26 synthesized compounds against human PC-3 cells and are summarized in Table 1 and 2.

[1] = test system: 55 to 60 cancer cell lines; conditions: 10 μM
NCI-H522 = assay: cells
MALME-3M = assay: cells
UACC-257 = assay: cells
786-0 = assay: cells
ACHN = assay: cells
KM12 = assay: cells
CCRF-CEM = assay: cells
T-47D = assay: cells
CAKI-1 = assay: cells
SR = assay: cells
SF-295 = assay: cells; conditions: CNS Cancer SF-295
OVCAR-8 = assay: cells
OVCAR-3 = assay: cells; conditions: OVCAR-3 (Ovarian Cancer), 10 μM, 48 hours
HS 578T = assay: cells
MDA-MB-468 = assay: cells
DU-145 = assay: cells
OVCAR-4 = assay: cells
SN12C = assay: cells
SNB-19 = assay: cells
OVCAR-5 = assay: cells
[2] = Homo sapiens, Melanoma MALME-3M

`CCN(CC)CCNc1nc2ccccc2c2c1-c1ccc(Cl)cc1C2=O` [SJ-3, 6-(2-(Diethylamino)ethylamino)-9-chloro-11H-indeno[1,2-c]quinolin-11-one] was tested, and the GI50 (UACC-62; Homo sapiens, Melanoma UACC-62) was 14.8 µM, the CC50 (UACC-62; Homo sapiens, Melanoma UACC-62, read-out: LC50 (the source's name)) was 6.68 µM and the TGI (UACC-62; Melanoma UACC-62) was 3.31 µM. For the same compound, the growth percentage (UACC-62; UACC-62 (Melanoma), 10 μM, 48 hours) was 99.56%, the growth percentage (BT-549; BT-549 (Breast Cancer), 10 μM, 48 hours) was 87.48% and the TGI (BT-549; Breast Cancer BT-549) was 9.50 µM. It also gave a GI50 (BT-549; Homo sapiens, Breast Cancer BT-549) of 32.5 µM, a CC50 (BT-549; Homo sapiens, Breast Cancer BT-549, read-out: LC50 (the source's name)) of 45.5 µM and a TGI (HT29; Colon Cancer HT29) of 3.16 µM. For the same compound, the growth percentage (HT29; HT29 (Colon Cancer), 10 μM, 48 hours) was 9.75%, the GI50 (HT29; Homo sapiens, HT-29, Colon Cancer HT29) was 4.23 µM and the CC50 (HT29; Homo sapiens, HT-29, Colon Cancer HT29, read-out: LC50 (the source's name)) was 6.28 µM. The GI50 (MOLT-4; Homo sapiens, Leukemia MOLT-4) was 6.24 µM, the LC50 (concentration killing 50% of cells) (MOLT-4; Homo sapiens, Leukemia MOLT-4) was 7.91 µM and the TGI (MOLT-4; Leukemia MOLT-4) was 3.43 µM. The growth percentage (MOLT-4; MOLT-4 (Leukemia), 10 μM, 48 hours) was 34.63%, the GI50 (MDA-MB-435; Homo sapiens, Melanoma MDA-MB-435) was 20.2 µM and the CC50 (MDA-MB-435; Homo sapiens, Melanoma MDA-MB-435, read-out: LC50 (the source's name)) was 7.62 µM. It also gave a growth percentage (MDA-MB-435; MDA-MB-435 (Melanoma), 10 μM, 48 hours) of 92.72%, a TGI (MDA-MB-435; Melanoma MDA-MB-435) of 3.86 µM and a GI50 (PC-3; Homo sapiens, Prostate Cancer PC-3) of 12.5 µM. It also gave a CC50 (PC-3; Homo sapiens, Prostate Cancer PC-3, read-out: LC50 (the source's name)) of 8.98 µM, a growth percentage (PC-3; PC-3 (Prostate Cancer), 10 μM, 48 hours) of 41.01% and a TGI (PC-3; Prostate Cancer PC-3) of 3.82 µM. For the same compound, the GI50 (SK-MEL-28; Homo sapiens, Melanoma SK-MEL-28) was 6 µM, the CC50 (SK-MEL-28; Homo sapiens, Melanoma SK-MEL-28, read-out: LC50 (the source's name)) was 5.83 µM and the TGI (SK-MEL-28; Melanoma SK-MEL-28) was 3.21 µM. For the same compound, the growth percentage (SK-MEL-28; SK-MEL-28 (Melanoma), 10 μM, 48 hours) was 87.40%, the GI50 (NCI-H322M; Homo sapiens, Non-Small Cell Lung Cancer NCI-H322M) was 34.5 µM and the CC50 (NCI-H322M; Homo sapiens, Non-Small Cell Lung Cancer NCI-H322M, read-out: LC50 (the source's name)) was 36.2 µM. The growth percentage (NCI-H322M; NCI-H322M (Non-Small Cell Lung Cancer), 10 μM, 48 hours) was 69.83%, the TGI (NCI-H322M; Non-Small Cell Lung Cancer NCI-H322M) was 13.10 µM and the “Toxicity (%)” value (human PC-3 cells) was 55.6%. For the same compound, the “GI % (10 μM)” value (human PC-3 cells; 10 μM) was 100%, the “Mean (mean growth percentage of the tested cancer cell lines)” value ([1]; 48 hours, all tested cell lines) was 62.4% and the “cytotoxicity in the first stage (in words)” value ([1]; basis for selection for the five-dose test) was “potential cytotoxicity”. For the same compound, the GI50 (NCI-H522; Homo sapiens, Non-Small Cell Lung Cancer NCI-H522) was 27.6 µM, the CC50 (NCI-H522; Homo sapiens, Non-Small Cell Lung Cancer NCI-H522, read-out: LC50 (the source's name)) was 7.23 µM and the growth percentage (NCI-H522; NCI-H522 (Non-Small Cell Lung Cancer), 10 μM, 48 hours) was 77.39%. The TGI (NCI-H522; Non-Small Cell Lung Cancer NCI-H522) was 3.80 µM, the GI50 (MALME-3M; [2]) was 17.3 µM and the LC50 (concentration killing 50% of cells) (MALME-3M; [2]) was 7.46 µM. It also gave a growth percentage (MALME-3M; MALME-3M (Melanoma), 10 μM, 48 hours) of 52.55%, a TGI (MALME-3M; Melanoma MALME-3M) of 3.83 µM and a GI50 (UACC-257; Homo sapiens, Melanoma UACC-257) of 21.2 µM. The CC50 (UACC-257; Homo sapiens, Melanoma UACC-257, read-out: LC50 (the source's name)) was 6.37 µM, the TGI (UACC-257; Melanoma UACC-257) was 3.39 µM and the growth percentage (UACC-257; UACC-257 (Melanoma), 10 μM, 48 hours) was 92.18%. It also gave a growth percentage (786-0; 786-0 (Renal Cancer), 10 μM, 48 hours) of 74.13%, a GI50 (786-0; Homo sapiens, 786-0, Renal Cancer 786-O) of 26.8 µM and a CC50 (786-0; Homo sapiens, 786-0, Renal Cancer 786-O, read-out: LC50 (the source's name)) of 6.01 µM. It also gave a TGI (786-0; Renal Cancer 786-O) of 3.29 µM, a growth percentage (ACHN; ACHN (Renal Cancer), 10 μM, 48 hours) of 55.86% and a GI50 (ACHN; Homo sapiens, Renal Cancer ACHN) of 6.44 µM. It also gave a CC50 (ACHN; Homo sapiens, Renal Cancer ACHN, read-out: LC50 (the source's name)) of 5.89 µM, a TGI (ACHN; Renal Cancer ACHN) of 3.04 µM and a TGI (KM12; Colon Cancer KM12) of 3.11 µM. For the same compound, the GI50 (KM12; Homo sapiens, Colon Cancer KM12) was 6.48 µM, the CC50 (KM12; Homo sapiens, Colon Cancer KM12, read-out: LC50 (the source's name)) was 5.96 µM and the growth percentage (KM12; KM12 (Colon Cancer), 10 μM, 48 hours) was 53.42%. For the same compound, the growth percentage (CCRF-CEM; CCRF-CEM (Leukemia), 10 μM, 48 hours) was 42.00%, the GI50 (CCRF-CEM; Homo sapiens, Leukemia CCRF-CEM) was 8.24 µM and the CC50 (CCRF-CEM; Homo sapiens, Leukemia CCRF-CEM, read-out: LC50 (the source's name)) was 7.8 µM. It also gave a TGI (CCRF-CEM; Leukemia CCRF-CEM) of 3.50 µM, a TGI (T-47D; Breast Cancer T-47D) of 3.56 µM and a GI50 (T-47D; Homo sapiens, T47D, Breast Cancer T-47D) of 17.8 µM. The CC50 (T-47D; Homo sapiens, T47D, Breast Cancer T-47D, read-out: LC50 (the source's name)) was 7.19 µM, the growth percentage (T-47D; T-47D (Breast Cancer), 10 μM, 48 hours) was 43.28% and the growth percentage (CAKI-1; CAKI-1 (Renal Cancer), 10 μM, 48 hours) was 64.35%. For the same compound, the GI50 (CAKI-1; Homo sapiens, Renal Cancer CAKI-1) was 14.8 µM, the CC50 (CAKI-1; Homo sapiens, Renal Cancer CAKI-1, read-out: LC50 (the source's name)) was 6.8 µM and the TGI (CAKI-1; Renal Cancer CAKI-1) was 3.26 µM. The GI50 (SR; Homo sapiens, Leukemia SR) was 5.05 µM, the LC50 (50% lethal concentration) (SR; Homo sapiens, Leukemia SR) was 11.6 µM and the TGI (SR; Leukemia SR) was 4.06 µM. For the same compound, the growth percentage (SR; SR (Leukemia), 10 μM, 48 hours) was 46.92%, the TGI (SF-295) was 4.60 µM and the GI50 (SF-295; Homo sapiens) was 17.8 µM. It also gave an LC50 (concentration killing 50% of cells) (SF-295; Homo sapiens) of 9.85 µM, a GI50 (OVCAR-8; Homo sapiens, Ovarian Cancer OVCAR-8) of 13.8 µM and a CC50 (OVCAR-8; Homo sapiens, Ovarian Cancer OVCAR-8, read-out: LC50 (the source's name)) of 7.76 µM. The growth percentage (OVCAR-8; OVCAR-8 (Ovarian Cancer), 10 μM, 48 hours) was 61.36%, the TGI (OVCAR-8; Ovarian Cancer OVCAR-8) was 3.63 µM and the growth percentage (OVCAR-3) was 73.13%. It also gave a TGI (HS 578T; Breast Cancer HS 578T) of 10.00 µM, a growth percentage (HS 578T; HS 578T (Breast Cancer), 10 μM, 48 hours) of 84.70% and a GI50 (HS 578T; Homo sapiens, Breast Cancer HS 578T) of 19.3 µM. The CC50 (HS 578T; Homo sapiens, Breast Cancer HS 578T, read-out: LC50 (the source's name)) was 46.1 µM, the TGI (MDA-MB-468; Breast Cancer MDA-MB-468) was 3.07 µM and the GI50 (MDA-MB-468; Homo sapiens, Breast Cancer MDA-MB-468) was 1.71 µM. For the same compound, the growth percentage (MDA-MB-468; MDA-MB-468 (Breast Cancer), 10 μM, 48 hours) was 33.81%, the growth percentage (DU-145; DU-145 (Prostate Cancer), 10 μM, 48 hours) was 65.48% and the GI50 (DU-145; Homo sapiens, Prostate Cancer DU-145) was 18.8 µM. It also gave a CC50 (DU-145; Homo sapiens, Prostate Cancer DU-145, read-out: LC50 (the source's name)) of 5.43 µM, a TGI (DU-145; Prostate Cancer DU-145) of 2.94 µM and a GI50 (OVCAR-4; Homo sapiens, Ovarian Cancer OVCAR-4) of 2.99 µM. The CC50 (OVCAR-4; Homo sapiens, Ovarian Cancer OVCAR-4, read-out: LC50 (the source's name)) was 5.68 µM, the growth percentage (OVCAR-4; OVCAR-4 (Ovarian Cancer), 10 μM, 48 hours) was 52.50% and the TGI (OVCAR-4; Ovarian Cancer OVCAR-4) was 2.79 µM. It also gave a GI50 (SN12C; Homo sapiens, Renal Cancer SN12C) of 4.12 µM, a CC50 (SN12C; Homo sapiens, Renal Cancer SN12C, read-out: LC50 (the source's name)) of 6.16 µM and a TGI (SN12C; Renal Cancer SN12C) of 2.87 µM. The growth percentage (SN12C; SN12C (Renal Cancer), 10 μM, 48 hours) was 61.60%, the TGI (SNB-19; CNS Cancer SNB-19) was 3.42 µM and the GI50 (SNB-19; Homo sapiens, CNS Cancer SNB-19) was 18.2 µM. For the same compound, the growth percentage (SNB-19; SNB-19 (CNS Cancer), 10 μM, 48 hours) was 94.02%, the GI50 (OVCAR-5; Homo sapiens, Ovarian Cancer OVCAR-5) was 21.5 µM and the CC50 (OVCAR-5; Homo sapiens, Ovarian Cancer OVCAR-5, read-out: LC50 (the source's name)) was 6.52 µM. It also gave a growth percentage (OVCAR-5; OVCAR-5 (Ovarian Cancer), 10 μM, 48 hours) of 89.34% and a TGI (OVCAR-5; Ovarian Cancer OVCAR-5) of 3.32 µM.
